US6521656B1, “Remedies for male sterility” (Fujisawa Pharmaceutical Co., Ltd., priority 1998, dated 2003)

Test system: human sperm
Experiment: Test for evaluation of the promoting effect on the induction of sperm acrosomal reaction (FITC-concanavalin A fluorescence staining)
Type: cell-based
Conditions: for acrosomal reaction induction rate (%): incubation time 3; for induction of acrosomal reaction: human sperm, summary in words
Experimental: Percoll for sperm washing was isotonized and adjusted to 90% with 20 mM Hepes buffered Hanks solution (pH 7.4; supplemented with 1.0 mg/ml BSA). The ejaculated human seminal fluid was allowed to liquefy at room temperature, diluted 2-fold with Hanks solution, and layered on 6.0 ml Percoll. In the Percoll layer, a glass capillary had been inserted in advance. The system was centrifuged at 1000×g for 30 minutes to precipitate motile sperm. The precipitated sperm was aspirated through the capillary and recovered. The sperm was resuspended in Hanks solution at a final concentration of about 50×10^6/ml and cultured at 37° C.
The human sperm acrosomal reaction was monitored by a fluorescence staining technique using FITC-concanavalin A.
As the acrosomal cap splits off on acrosomal reaction, the membrane protein rich in the high-mannose sugar chain on the acrosomal tunica intima becomes exposed. Therefore, the sperm showing a yellow fluorescence in the anterior half of the head was regarded as acrosomal reaction-induced sperm.
Compound A was added to the sperm suspension at a final concentration of 10^−6 or 10^−7 M. Observation was made in the group supplemented with 1 I.U./ml of adenosine deaminase and the non-enzyme-addition group.
Compounds B and C were respectively added to the sperm suspension at a final concentration of 10^−7 M. Observation was made in the groups supplemented with 1 I.U./ml of adenosine deaminase.
Each figure denotes the acrosomal reaction induction rate (%) (the mean±S.E. of 3 observations in Table 1; the mean±S.E. of 5 observations in Tables 2 and 3). In Table 1, the figure in the top row represents the result obtained in the absence of adenosine deaminase and the figures in the bottom row represent the results in the presence of adenosine deaminase.

Row | Compound | acrosomal reaction induction rate (%) (Compound B 10^−7 M, supplemented with 1 I.U./ml adenosine deaminase, mean±S.E. of 5 observations) | induction of acrosomal reaction | acrosomal reaction induction rate (%) (Compound A 10^−6 M, absence of adenosine deaminase, mean±S.E. of 3 observations) | acrosomal reaction induction rate (%) (Compound A 10^−6 M, presence of adenosine deaminase 1 I.U./ml, mean±S.E. of 3 observations) | acrosomal reaction induction rate (%) (Compound A 10^−7 M, absence of adenosine deaminase, mean±S.E. of 3 observations) | acrosomal reaction induction rate (%) (Compound A 10^−7 M, presence of adenosine deaminase 1 I.U./ml, mean±S.E. of 3 observations) | acrosomal reaction induction rate (%) (Compound C 10^−7 M, supplemented with 1 I.U./ml adenosine deaminase, mean±S.E. of 5 observations)
1 | O=C(O)C[C@H]1CCCCN1C(=O)C=Cc1c(-c2ccccc2)nn2ccccc12 (single isomer, unassigned) [Compound B] | 41.26 ± 2.18 | promoted | – | – | – | – | –
2 | O=C(O)CCCn1nc(-c2c(-c3ccccc3)nn3ccccc23)ccc1=O [Compound A, 3-[2-(3-Carboxypropyl)-3-oxo-2,3-dihydropyridazin-6-yl]-2-phenylpyrazolo[1,5-a]pyridine] | – | promoted | 43.7 ± 2.77 | 63.6 ± 1.84 | 47.1 ± 2.37 | 64.1 ± 1.73 | –
3 | O=C(O)CC1=C(n2nc(-c3c(-c4ccccc4)nn4ccccc34)ccc2=O)CCCC1 [Compound C, 3-[2-(2-Carboxymethyl-1-cyclohexenyl)-3-oxo-2,3-dihydropyridazin-6-yl]-2-phenylpyrazolo[1,5-a]pyridine] | – | promoted | – | – | – | – | 48.86 ± 2.57
